Data published in ChEMBL document CHEMBL1135947, “Structure-based design and synthesis of HIV-1 protease inhibitors employing beta-D-mannopyranoside scaffolds” (Bioorg Med Chem Lett, 2002).

target: T1, Human immunodeficiency virus type 1 protease (Human immunodeficiency virus 1, UniProt Q72874); assay: Compound was tested for inhibitory activity against HIV-1 protease

`CO[C@@H]1OC2COC(c3ccccc3)O[C@H]2C(OCc2ccccc2)[C@H]1O` (stereo partly specified) and `CO[C@@H]1OC(CNC(=O)OCc2ccccc2)[C@@H](O)C(OCc2ccccc2)[C@H]1O` (stereo partly specified) are within 1.5-fold of each other in IC50: 4.85 µM for the first, 4.66 µM for the second.

Compared with `COc1ccc(O[C@@H]2C(CNC(C)=O)O[C@@H](OC)[C@H](O)C2OCc2ccccc2)cc1` (stereo partly specified), `COc1ccc(O[C@@H]2C(CNC(=O)OCc3ccccc3)O[C@@H](OC)[C@H](O)C2OCc2ccccc2)cc1` (stereo partly specified) is 1.7-fold lower in IC50: 7.74 µM for the first, 4.48 µM for the second. The second is the more potent here.

Work on `CC(=O)NCC1O[C@@H](Oc2ccccc2)C(O)C(O)[C@@H]1O` (single isomer, unassigned) yielded an IC50 of 8.95 µM.

target: T1, Human immunodeficiency virus type 1 protease; assay: Compound was tested for inhibitory activity against HIV-1 protease; Not active

For `CO[C@@H]1OC(CNC(=O)C(C)(C)C)[C@@H](O)C(O)[C@@H]1O` (stereo partly specified), the IC50 was “Not Active”.
